From patent US20240010726A1, “LFA-1 SIGNALLING MEDIATOR FOR USE IN CANCER THERAPY” (Universität Basel, priority 2020, published 2024)

Key:
Format in all cases: cell-based
human EM CD8 T cells = assay: Flow cytometry of surface activation markers on EM CD8 T cells; details: 24 h plate-bound anti-CD3 and soluble anti-CD28 Ab; 0 mM vs 1.2 mM Mg^2+
Description: FIG. 2: Extracellular magnesium promotes memory-specific activation via LFA-1. Glycolytic switch of human EM CD8 T cells (a) and naïve CD8 T cells (b) subsets upon injection of anti-CD3 Ab only, or anti-CD3 and anti-CD28 Ab, was assessed by metabolic flux analysis in medium containing either 1.2 mM Mg^2+, 0 mM Mg^2+, or medium which was reconstituted from 0 mM to 1.2 mM Mg^2+ immediately prior to activation (0→1.2 mM Mg^2+). (a) Results for human effector memory (EM) and (b) for human naïve CD8 T cells. Glycolytic switch was quantified by subtracting […] measurements. (c) Flow cytometric analysis of surface activation markers on human EM CD8 T cells 24 hours after activation by plate-bound anti-CD3 Ab and soluble anti-CD28 Ab, in 1.2 mM and 0 mM Mg^2+ media, respectively. (d) Abundance of inflammatory cytokines in corresponding EM CD8 T cell culture supernatants, determined by CBA. (e) CD11a (LFA-1) surface expression on human naïve and EM CD8 T cells as well PHA T cell blasts. Flow cytometry-based assessment of total LFA-1 expression assessed by mAb TS2/4 (f), closed conformation of αL by mAb HI111 (g), extended conformation of LFA-1 by mAb Kim127 (h), open head-piece conformation of LFA-1 by mAb m24 (i), phosphorylation of focal adhesion kinase (FAK) […] as well TNF expression (k)±TCR-induced activation in different extracellular Mg^2+ concentrations. (l) Flow cytometry-based assessment of LFA-1 with open-head piece conformation on human EM and naïve CD8 T cells using the open head-piece reporter mAb m24. (m) Assessment of glycolytic switch of EM CD8 T cells. (n) Assessment of glycolytic switch of naïve CD8 T cells. […] Naïve CD8 T cells were activated with in house generated anti-CD3/anti-CD28 coated microbeads. Polybead microspheres ([…], Polyscience […]) were incubated with 1 μg anti-CD3 Ab and 10 μg anti-CD28 Ab. […] Primary human T cells were activated for 24 h and PHA-blasts for 4 h. For analysis of surface markers, T cells were harvested at indicated time points, washed once in cold PBS and, if required, stained with Fixable Viability Dyes for 15 min at 4° C. Surface markers were stained with appropriate antibodies for 20 min at 4° C.

LFA-1 = biological target: T1, LFA-1 (Homo sapiens, UniProt P05107+P20701); assay: Co-culture assay with Blinatumomab, LFA-1 head-piece opening on PHA-blasts; details: 30 min co-culture with Ramos cells; Blinatumomab 300 pg ml^−1; ±Mg^2+
T1 construct: endogenous in cells; host or cells: primary human T cells from healthy donors: PHA-induced T cell blasts, sorted EM and naive CD8 T cells, and NY-ESO-1 TCR-transduced REP T cells
Description: FIG. 3: Magnesium regulates LFA-1 mediated T cell activation and cytotoxicity as well BiTE- and CAR T-cell functionality. (a) Glycolytic switch of murine WT and LFA-1^−/− CTLs upon injection of anti-CD3/28 Ab in medium containing 1.2 mM Mg^2+ and 0 mM Mg^2+, presented as quantification of summarized data with n=4 mice. (b) Calcium flux in WT and LFA-1^−/− Jurkat T cells stimulated with anti-CD3 Ab in 1.2 mM and 0 mM Mg^2+ medium, respectively. Cells were loaded with Fluo4, and signal intensity as recorded by plate reader, was normalized to unstimulated baseline values. […] Quantified results of n=3 mice with 3 technical replicates each. […] Results are quantified of n=3 mice with 3 technical replicates each. (e) Representative CD11a (LFA-1) surface expression on human naïve and EM CD8 T cells, PHA T cell blasts and REP T cells, assessed by flow cytometry. […] Data is presented as quantified results of n=5 healthy donors (f, g, h), n=3 healthy donors with 2 technical replicates each or n=1 healthy donor with 4 technical replicates (j). […] Data is presented as quantified results of n=1 healthy donor with 4 technical replicates. […] Cytotoxicity is reported as total area under the curve of the fluorescence driven by incorporation of cytotoxic green reagent in dead target cells (green area per μm^2). […]

[1] = tested on: murine WT and LFA-1^−/− CTLs; assay: Degranulation marker CD107a on murine WT and LFA-1−/− CTLs; details: 8 h anti-CD3/anti-CD28 Ab; 0 mM vs 1.2 mM Mg^2+

T1 sequence (P20701 26-1170): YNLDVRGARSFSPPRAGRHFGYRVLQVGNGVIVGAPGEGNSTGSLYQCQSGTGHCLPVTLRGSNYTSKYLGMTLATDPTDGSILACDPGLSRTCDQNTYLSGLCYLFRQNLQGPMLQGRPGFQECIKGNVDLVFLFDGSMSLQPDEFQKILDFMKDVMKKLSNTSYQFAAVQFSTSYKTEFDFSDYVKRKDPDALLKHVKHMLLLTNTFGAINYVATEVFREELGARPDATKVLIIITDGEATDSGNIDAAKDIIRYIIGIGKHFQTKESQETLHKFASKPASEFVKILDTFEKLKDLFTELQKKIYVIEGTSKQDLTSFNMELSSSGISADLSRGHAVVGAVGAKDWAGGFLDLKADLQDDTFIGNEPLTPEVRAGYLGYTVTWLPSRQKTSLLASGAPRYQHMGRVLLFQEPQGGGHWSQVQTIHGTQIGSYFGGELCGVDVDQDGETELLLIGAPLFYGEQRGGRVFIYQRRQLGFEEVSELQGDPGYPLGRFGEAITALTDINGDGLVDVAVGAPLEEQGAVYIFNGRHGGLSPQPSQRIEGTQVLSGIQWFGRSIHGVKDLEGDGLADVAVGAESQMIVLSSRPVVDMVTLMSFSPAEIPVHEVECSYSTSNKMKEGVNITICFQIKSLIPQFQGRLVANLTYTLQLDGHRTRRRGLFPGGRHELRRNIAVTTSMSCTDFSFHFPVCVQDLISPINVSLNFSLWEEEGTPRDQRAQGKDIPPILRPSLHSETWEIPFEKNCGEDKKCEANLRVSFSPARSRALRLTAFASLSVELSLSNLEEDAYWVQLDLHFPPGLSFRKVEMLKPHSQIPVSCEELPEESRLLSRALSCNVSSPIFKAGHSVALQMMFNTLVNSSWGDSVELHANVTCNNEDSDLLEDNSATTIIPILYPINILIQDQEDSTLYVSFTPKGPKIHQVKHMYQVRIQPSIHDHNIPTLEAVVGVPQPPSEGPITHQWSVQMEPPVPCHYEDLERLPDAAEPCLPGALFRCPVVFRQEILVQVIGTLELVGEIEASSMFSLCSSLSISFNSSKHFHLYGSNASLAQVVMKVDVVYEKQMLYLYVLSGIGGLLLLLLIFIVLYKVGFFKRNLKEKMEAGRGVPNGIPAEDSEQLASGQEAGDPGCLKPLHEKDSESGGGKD
T1 sequence (P05107 23-769): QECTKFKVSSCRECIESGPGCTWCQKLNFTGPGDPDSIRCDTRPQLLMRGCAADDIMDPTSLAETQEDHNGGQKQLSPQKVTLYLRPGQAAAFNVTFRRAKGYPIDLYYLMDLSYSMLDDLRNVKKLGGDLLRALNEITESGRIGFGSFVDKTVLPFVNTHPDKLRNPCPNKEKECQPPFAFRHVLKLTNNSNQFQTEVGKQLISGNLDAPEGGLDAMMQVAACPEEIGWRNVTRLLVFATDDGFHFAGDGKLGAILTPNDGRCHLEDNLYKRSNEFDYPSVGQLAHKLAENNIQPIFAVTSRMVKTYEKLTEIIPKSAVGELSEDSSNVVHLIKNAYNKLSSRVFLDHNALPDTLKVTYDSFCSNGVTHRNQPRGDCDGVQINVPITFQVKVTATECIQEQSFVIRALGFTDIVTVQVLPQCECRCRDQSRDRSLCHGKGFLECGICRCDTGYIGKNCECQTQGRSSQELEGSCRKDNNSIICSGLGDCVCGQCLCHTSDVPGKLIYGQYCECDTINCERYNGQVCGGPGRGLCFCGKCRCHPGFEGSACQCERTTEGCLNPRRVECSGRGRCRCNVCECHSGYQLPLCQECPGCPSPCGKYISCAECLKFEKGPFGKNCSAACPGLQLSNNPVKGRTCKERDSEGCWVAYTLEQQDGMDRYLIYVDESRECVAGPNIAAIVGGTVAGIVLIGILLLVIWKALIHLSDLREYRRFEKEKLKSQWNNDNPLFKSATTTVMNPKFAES

In the case of `[Mg+2]` [Mg^2+, Magnesium], the CD25 surface expression (human EM CD8 T cells) is reported as “failed to upregulate”, the CD69 surface expression (human EM CD8 T cells) is reported as “failed to upregulate” and the CD71 surface expression (human EM CD8 T cells) is reported as “failed to upregulate”. For the same compound, the CD98 surface expression (human EM CD8 T cells) was “failed to upregulate”, the “CD107a surface expression (degranulation)” value (human EM CD8 T cells) was “failed to upregulate” and the “Activation-induced LFA-1 head-piece opening on PHA-blasts” value (LFA-1) was “Mg^2+-dependent”. For the same compound, the “CD107a degranulation of LFA-1^−/− CTLs” value [1] was “unaffected” and the “CD107a degranulation of WT CTLs” value [1] was “reduced CTL degranulation”.
